Legend:
[1] = system: K562 (chronic myelogenous leukemia); assay: Effect on tumor cell lines (Latham assay), K562; type: cell-based; settings: Homo sapiens; K562 cells, examined 96 hours after treatment; read-out: Potencies (IC50) K 562
Protocol: (§1) The plated cells were treated 24 hours later with a compound of the invention dissolved in DMSO at multiple concentrations ranging from 0.01 μM to 100 μM. […] When necessary, the total number of viable cells was determined by trypsinizing the wells and counting the number of viable cells, as determined by trypan blue exclusion, using a hemacytometer.

[2] = system: DU145 (prostate cancer); assay: Effect on tumor cell lines (Latham assay), DU145; type: cell-based; settings: Homo sapiens, DU-145; DU145 cells, examined 96 hours after treatment; read-out: Potencies (IC50) DU 145
Protocol: as §1

| SMILES | IC50 [1] [µM] | IC50 [2] [µM] | melting point [°C] |
| --- | --- | --- | --- |
| Cn1c(=O)c(S(=O)(=O)c2ccc(Cl)cc2)cc2cnc(Nc3ccc(Cl)cc3)nc21 [Example 3, 2-(4-chlorophenylamino)-6-(4-chlorophenylsulfonyl)-8-methylpyrido[2,3-d]pyrimidin-7(8H)-one] | 10 to 25 | 10 to 25 | > 300 |
| COc1ccc(Nc2ncc3cc(S(=O)(=O)c4ccc(Cl)cc4)c(=O)n(C)c3n2)cc1 [Example 4, 6-(4-chlorophenylsulfonyl)-2-(4-methoxyphenylamino)-8-methylpyrido[2,3-d]pyrimidin-7(8H)-one] | 10 to 25 | 25 to 50 | 286 to 290 |
| Cn1c(=O)c(S(=O)(=O)c2ccc(Cl)cc2)cc2cnc(Nc3cnc4ccccc4c3)nc21 [Example 5, 6-(4-chlorophenylsulfonyl)-8-methyl-2-(quinolin-3-ylamino)pyrido[2,3-d]pyrimidin-7(8H)-one] | 10 to 25 | 10 to 25 | 304 to 306 |
| Cn1c(=O)c(S(=O)(=O)c2ccc(Cl)cc2)cc2cnc(Nc3ccc4[nH]ccc4c3)nc21 [Example 6, 2-(1H-indol-5-ylamino)-6-(4-chlorophenylsulfonyl)-8-methylpyrido[2,3-d]pyrimidin-7(8H)-one] | < 1 | < 1 | 316 to 320 |
| Cn1c(=O)c(S(=O)(=O)c2ccc(Cl)cc2)cc2cnc(NCCCN3CCOCC3)nc21 [Example 7, 2-(3-morpholinopropylamino)-6-(4-chlorophenylsulfonyl)-8-methylpyrido[2,3-d]pyrimidin-7(8H)-one] | 25 to 50 | 25 to 50 | 160 to 164 |
| CC(=O)N1CCN(c2ncc3cc(S(=O)(=O)c4ccc(Cl)cc4)c(=O)n(C)c3n2)CC1 [Example 8, 6-(4-chlorophenylsulfonyl)-2-(4-acetylpiperazin-1-yl)-8-methylpyrido[2,3-d]pyrimidin-7(8H)-one] | 50 to 100 | 50 to 100 | 264 to 268 |
| CN1CCN(CCNc2ncc3cc(S(=O)(=O)c4ccc(Cl)cc4)c(=O)n(C)c3n2)CC1 [Example 9, 2-(2-(4-methylpiperazin-1-yl)ethylamino)-6-(4-chlorophenylsulfonyl)-8-methylpyrido[2,3-d]pyrimidin-7(8H)-one] | 10 to 25 | 25 to 50 | 176 to 180 |
| Cn1c(=O)c(S(=O)(=O)c2ccc(F)cc2)cc2cnc(Nc3cccc4[nH]ccc34)nc21 [Example 10, 2-(1H-indol-4-ylamino)-6-(4-fluorophenylsulfonyl)-8-methylpyrido[2,3-d]pyrimidin-7(8H)-one] | < 1 | < 1 | > 350 |
| Cn1c(=O)c(S(=O)(=O)c2ccc(F)cc2)cc2cnc(Nc3ccc4[nH]ccc4c3)nc21 [Example 11] | < 1 | < 1 | 278 to 282 |
| Cn1c(=O)c(S(=O)(=O)c2ccc(F)cc2)cc2cnc(Nc3ccc4[nH]ncc4c3)nc21 [Example 13, 2-(1H-indazol-5-ylamino)-6-(4-fluorophenylsulfonyl)-8-methylpyrido[2,3-d]pyrimidin-7(8H)-one] | 1 to 10 | 1 to 10 | 160 to 165 |
| Cc1ccc(S(=O)(=O)c2cc3cnc(Nc4cccc5cccnc45)nc3n(C)c2=O)cc1 [Example 14, 8-methyl-2-(quinolin-8-ylamino)-6-tosylpyrido[2,3-d]pyrimidin-7(8H)-one] | 10 to 25 | 10 to 25 | > 350 |
| Cc1ccc(S(=O)(=O)c2cc3cnc(Nc4ccc5ncccc5c4)nc3n(C)c2=O)cc1 [Example 15, 8-methyl-2-(quinolin-6-ylamino)-6-tosylpyrido[2,3-]pyrimidin-7(8H)-one] | 10 to 25 | 10 to 25 | 325 to 330 |
| Cc1ccc(S(=O)(=O)c2cc3cnc(Nc4cccc5[nH]ccc45)nc3n(C)c2=O)cc1 [Example 16, 2-(1H-indol-4-ylamino)-8-methyl-6-tosylpyrido[2,3-d]pyrimidin-7(8H)-one] | 1 to 10 | 1 to 10 | 295 to 300 |
| Cc1ccc(S(=O)(=O)c2cc3cnc(Nc4ccc5[nH]ccc5c4)nc3n(C)c2=O)cc1 [Example 17, 2-(1H-indol-5-ylamino)-8-methyl-6-tosylpyrido[2,3-d]pyrimidin-7(8H)-one] | < 1 | < 1 | 310 to 314 |
| Cn1c(=O)c(S(=O)(=O)c2ccc(Br)cc2)cc2cnc(Nc3ccc4[nH]ccc4c3)nc21 [Example 18, 2-(1H-indol-5-ylamino)-6-(4-bromophenylsulfonyl)-8-methylpyrido[2,3-d]pyrimidin-7(8H)-one] | 1 to 10 | 1 to 10 | 316 to 320 |
| Cc1ccc(S(=O)(=O)c2cc3cnc(Nc4cnc5[nH]ccc5c4)nc3n(C)c2=O)cc1 [Example 19, 2-(1H-pyrrolo[2,3-b]pyridin-5-ylamino)-8-methyl-6-tosylpyrido[2,3-d]pyrimidin-7(8H)-one] | 1 to 10 | 1 to 10 | 252 to 255 |

| SMILES | IC50 [1] [µM] | IC50 [2] [µM] | melting point [°C] |
| --- | --- | --- | --- |
| COc1ccc(Nc2ncc3cc(S(=O)(=O)c4ccc(C)cc4)c(=O)n(C)c3n2)cc1 [Example 20, 2-(4-methoxyphenylamino)-8-methyl-6-tosylpyrido[2,3-d]pyrimidin-7(8H)-one] | 50 to 100 | > 100 | 336 to 340 |
| Cn1c(=O)c(S(=O)(=O)c2ccccc2)cc2cnc(Nc3ccc4[nH]ccc4c3)nc21 [Example 21, 2-(1H-indol-5-ylamino)-8-methyl-6-(phenylsulfonyl)pyrido[2,3-d]pyrimidin-7(8H)-one] | < 1 | 1 to 10 | 340 to 344 |
| Cn1c(=O)c(S(=O)(=O)c2ccccc2)cc2cnc(Nc3cnc4[nH]ccc4c3)nc21 [Example 22, 2-(1H-pyrrolo[2,3-b]pyridin-5-ylamino)-8-methyl-6-(phenylsulfonyl)pyrido[2,3-d]pyrimidin-7(8H)-one] | < 1 | < 1 | 280 to 284 |
| Cn1c(=O)c(S(=O)(=O)c2ccccc2)cc2cnc(Nc3ccc4ncccc4c3)nc21 [Example 23, 8-methyl-6-(phenylsulfonyl)-2-(quinolin-6-ylamino)pyrido[2,3-d]pyrimidin-7(8H)-one] | > 100 | 50 to 100 | 348 to 350 |
| Cn1c(=O)c(S(=O)(=O)c2ccc(F)cc2)cc2cnc(Nc3ccc4cc[nH]c4c3)nc21 [Example 24, 2-(1H-indol-6-ylamino)-6-(4-fluorophenylsulfonyl)-8-methylpyrido[2,3-d]pyrimidin-7(8H)-one] | 25 to 50 | 25 to 50 | > 350 |
| Cn1c(=O)c(S(=O)(=O)c2ccc(F)c(Cl)c2)cc2cnc(Nc3ccc4c(c3)CC(=O)N4)nc21 [Example 36, 2-(2-oxoindolin-5-ylamino)-6-(3-chloro-4-fluorophenylsulfonyl)-8-methylpyrido[2,3-d]pyrimidin-7(8H)-one] | 10 to 25 | 10 to 25 |  |
| Cn1c(=O)c(S(=O)(=O)c2ccc(F)c(Cl)c2)cc2cnc(Nc3ccc4[nH]ncc4c3)nc21 [Example 38, 2-(1H-indazol-5-ylamino)-6-(3-chloro-4-fluorophenylsulfonyl)-8-methylpyrido[2,3-d]pyrimidin-7(8H)-one] | 10 to 25 | 10 to 25 |  |
| Cn1c(=O)c(S(=O)(=O)c2ccc(F)cc2F)cc2cnc(Nc3ccc4c(c3)CC(=O)N4)nc21 [Example 41, 6-(2,4-difluorophenylsulfonyl)-2-(2-oxoindolin-5-ylamino)-8-methylpyrido[2,3-d]pyrimidin-7(8H)-one] | 50 to 100 | 50 to 100 |  |
| Cn1c(=O)c(S(=O)(=O)c2ccc(F)cc2F)cc2cnc(NCCN3CCOCC3)nc21 [Example 42, 6-(2,4-difluorophenylsulfonyl)-2-(2-morpholinoethylamino)-8-methylpyrido[2,3-d]pyrimidin-7(8H)-one] | 50 to 100 | 50 to 100 |  |
| Cn1c(=O)c(S(=O)(=O)c2ccc(O)cc2)cc2cnc(Nc3ccc4[nH]ccc4c3)nc21 [Example 43, 2-(1H-indol-5-ylamino)-6-(4-hydroxyphenylsulfonyl)-8-methylpyrido[2,3-d]pyrimidin-7(8H)-one] | < 1 | < 1 |  |
| O=c1[nH]c2nc(Nc3ccc4[nH]ccc4c3)ncc2cc1S(=O)(=O)c1ccc(F)c(Cl)c1 [Example 46, 2-(1H-indol-5-ylamino)-6-(3-chloro-4-fluorophenylsulfonyl)pyrido[2,3-d]pyrimidin-7(8H)-one] | 10 to 25 | 50 to 100 |  |
| CN1CCN(c2ccc(Nc3ncc4cc(S(=O)(=O)c5ccc(Cl)cc5)c(=O)n(C5CCCC5)c4n3)cc2)CC1 [Example 58, 2-(4-(4-methylpiperazin-1-yl)phenylamine)-6-(4-chlorophenylsulfonyl)-8-cyclopentylpyrido[2,3-d]pyrimidin-7(8H)-one] | 1 to 10 | 10 to 25 |  |
| C[S+]([O-])c1ncc2cc(S(=O)(=O)c3ccc(Cl)cc3)c(=O)n(C3CCCC3)c2n1 (centres unmarked) [Example 59, 6-(4-chlorophenylsulfonyl)-8-cyclopentyl-2-(methylsulfinyl)pyrido[2,3-d]pyrimidin-7(8H)-one] | 1 to 10 | 10 to 25 |  |
| CN1CCN(c2ccc(Nc3ncc4cc(S(=O)(=O)c5ccccc5)c(=O)n(C5CCCC5)c4n3)cc2)CC1 [Example 64, 2-(4-(4-methylpiperazin-1-yl)phenylamino)-8-cyclopentyl-6-(phenylsulfonyl)pyrido[2,3-d]pyrimidin-7(8H)-one] | 1 to 10 | < 1 |  |
| C[S+]([O-])c1ncc2cc(S(=O)(=O)c3ccccc3)c(=O)n(C3CCCC3)c2n1 (centres unmarked) [Example 66, 8-cyclopentyl-2-(methylsulfinyl)-6-(phenylsulfonyl)pyrido[2,3-d]pyrimidin-7(8H)-one] | 10 to 25 | 50 to 100 |  |

From US8889696B2, “Substituted pyrido[2,3-d]pyrimidin-7(8H)-ones and therapeutic uses thereof” (Temple University—Of The Commonwealth System Of Higher …, priority 2009, dated 2014)
